# According to patent US20080221092A1, “Heterobicyclic metalloprotease inhibitors” (priority 2006, published 2008):
# Legend:
# [1] = molecular target: T1, catalytic domain of MMP-3 enzyme (Homo sapiens, UniProt P08254); assay: Assay for determining MMP-3 inhibition (fluorescent substrate NFF-3); assay type: biochemical; details: read-out: Summary of MMP-3 Activity for Compounds (IC50 MMP-3, group)
# T1 construct: stock solution of the catalytic domain of MMP-3 enzyme (Biomol, Cat. No. SE-109); purchased Biomol SE-109
# T1 sequence (P08254 100-272 limits assumed): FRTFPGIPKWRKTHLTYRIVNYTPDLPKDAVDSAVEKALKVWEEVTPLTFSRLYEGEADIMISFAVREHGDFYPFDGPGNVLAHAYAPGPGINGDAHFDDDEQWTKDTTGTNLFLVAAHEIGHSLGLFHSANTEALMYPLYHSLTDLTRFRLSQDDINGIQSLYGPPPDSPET
# Method: Assay for Determining MMP-3 Inhibition
# The typical assay for MMP-3 activity is carried out in assay buffer comprised of 50 mM MES, pH 6.0, 10 mM CaCl2 and 0.05% Brij-35. Different concentrations of tested compounds are prepared in assay buffer in 50 μl aliquots. 10 μl of a 100 nM stock solution of the catalytic domain of MMP-3 enzyme (Biomol, Cat. No. SE-109) is added to the compound solution. The mixture of enzyme and compound in assay buffer is thoroughly mixed and incubated for 10 min at room temperature. Upon the completion of incubation, the assay is started by addition of 40 μl of a 12.5 μM stock solution of NFF-3 fluorescent substrate (Calbiochem, Cat. No. 480455). The time-dependent increase in fluorescence is measured at the 330 nm excitation and 390 nm emission by an automatic plate multireader. The IC50 values are calculated from the initial reaction rates.
# [2] = molecular target: T2, catalytic domain of MMP-13 enzyme (Homo sapiens, UniProt P45452); assay: Assay for determining MMP-13 inhibition (fluorescent substrate); assay type: biochemical; details: read-out: Summary of MMP-13 Activity for Compounds (IC50 MMP-13, group)
# T2 construct: stock solution of catalytic domain of MMP-13 enzyme (produced by Alantos or commercially available from Invitek); purchased Invitek (Berlin) 30100812
# Method: Assay for Determining MMP-13 Inhibition
# The typical assay for MMP-13 activity is carried out in assay buffer comprised of 50 mM Tris, pH 7.5, 150 mM NaCl, 5 mM CaCl2 and 0.05% Brij-35. Different concentrations of tested compounds are prepared in assay buffer in 50 μl aliquots. 10 μl of a 50 nM stock solution of catalytic domain of MMP-13 enzyme (produced by Alantos or commercially available from Invitek (Berlin), Cat. No. 30100812) is added to the compound solution. The mixture of enzyme and compound in assay buffer is thoroughly mixed and incubated for 10 min at room temperature. Upon the completion of incubation, the assay is started by addition of 40 μl of a 12.5 μM stock solution of MMP-13 fluorescent substrate (Calbiochem, Cat. No. 444235). The time-dependent increase in fluorescence is measured at the 320 nm excitation and 390 nm emission by automatic plate multireader. The IC50 values are calculated from the initial reaction rates.
Structure (SMILES),IC50 [1] [nM],IC50 [2] [nM]
CC(C)(C)OC(=O)Nc1c[nH]c2c(C(=O)NCc3ccc4c(c3)NC(=O)CO4)ncnc12 [Example 1],101 to 20000,–
O=C(NCc1ccc(F)c(Cl)c1)c1ncnc2c(Br)c[nH]c12 [Example 4],101 to 20000,101 to 20000
O=C1COc2ccc(CNC(=O)c3ncnc4c([N+](=O)[O-])c[nH]c34)cc2N1 [Example 6],101 to 20000,101 to 20000
CCOC(=O)c1c[nH]c2c(C(=O)NCc3ccc4c(c3)NC(=O)CO4)ncnc12 [Example 8],3 to 100,101 to 20000
O=C1COc2ccc(CNC(=O)c3ncnc4nc[nH]c34)cc2N1 [Example 9],101 to 20000,101 to 20000
O=C1COc2ccc(CNC(=O)c3ncnc4cc[nH]c34)cc2N1 [Example 13],101 to 20000,101 to 20000
O=C(O)c1c[nH]c2c(C(=O)NCc3ccc(F)c(Cl)c3)ncnc12 [Example 20],101 to 20000,101 to 20000
O=C1COc2ccc(CNC(=O)c3ncnc4c(C(=O)O)c[nH]c34)cc2N1 [Example 21],3 to 100,101 to 20000
Nc1n[nH]c2c(C(=O)NCc3ccc(F)c(Cl)c3)ncnc12 [Example 22],101 to 20000,101 to 20000
Nc1n[nH]c2c(C(=O)NCc3ccc4c(c3)NC(=O)CO4)ncnc12 [Example 23],101 to 20000,3 to 100
CS(=O)(=O)Nc1c[nH]c2c(C(=O)NCc3ccc4c(c3)NC(=O)CO4)ncnc12 [Example 25],3 to 100,101 to 20000
O=C1COc2ccc(CNC(=O)c3ncnc4c(NS(=O)(=O)Cc5ccccc5)c[nH]c34)cc2N1 [Example 27],101 to 20000,101 to 20000

# Next, values leading:
IC50 [1] [nM],IC50 [2] [nM],Structure (SMILES)
101 to 20000,101 to 20000,O=C(NCc1ccc(F)cc1)c1ncnc2c(Br)c[nH]c12 [Example 5]
101 to 20000,101 to 20000,O=C(NCc1ccc(F)c(Cl)c1)c1ncnc2c([N+](=O)[O-])c[nH]c12 [Example 7]
101 to 20000,101 to 20000,Nc1c[nH]c2c(C(=O)NCc3ccc4c(c3)NC(=O)CO4)ncnc12 [Example 15]
101 to 20000,101 to 20000,O=C(O)c1c[nH]c2c(C(=O)NCc3ccc(F)cc3)ncnc12 [Example 19]
101 to 20000,101 to 20000,O=C1COc2ccc(CNC(=O)c3ncnc4c(NS(=O)(=O)c5cccs5)c[nH]c34)cc2N1 [Example 26]
101 to 20000,101 to 20000,O=C1COc2ccc(CNC(=O)c3ncnc4c(NS(=O)(=O)c5ccc(Cl)cc5)c[nH]c34)cc2N1 [Example 28]
